Assays:
[1] = Bioavailability studies of levothyroxine sodium tablets of different strengths (pharmacokinetic parameters, dose linearity); assay type: in vivo; conditions: tablets of 50, 100, 150 and 200 µg made from one base formulation, oral
Procedure: Die ermittelten pharmakokinetischen Parameter der in vivo geprüften 50, 100, 150 und 200 µg Levothyroxin-Natrium enthaltenden Tabletten sind in Tabelle 1 aufgeführt.

[2] = In vitro release of Levothyroxin-Natrium from tablets, paddle apparatus; assay type: physicochemical; conditions: tablets of 50, 100, 150, 200 µg, 100 rpm, 500 ml phosphate buffer pH 7,4, data only in Fig. 1-4
Text: Die folgenden in vitro Untersuchungen der erfindungsgemäß hergestellten Tabletten belegen, dass der Wirkstoff Levothyroxin-Natrium aus den Tabletten der unterschiedlichen Dosierungen in gleicher Geschwindigkeit und […] Ausmaß freigesetzt und somit dem Körper zur Verfügung gestellt werden kann. Die Untersuchungen zur Freisetzung wurden mit den Tabletten gemäß den Beispielen 2 und 3 durchgeführt. In den Figuren 1 bis 4 ist die jeweilige Freisetzung dargestellt. An […] % angegeben, an […] Zeit aufgetragen. Die Balken geben den Vertrauensbereich des […] von Levothyroxin-Natrium aus Tabletten (50 μg), Tablettenmasse 52 mg, Paddle-Apparatur, 100 rpm, […]: 500 ml Phosphatpuffer pH 7,4; • Fig. 2: Freisetzung von Levothyroxin-Natrium aus Tabletten (100 μg), Tablettenmasse 104 mg, Paddle-Apparatur, 100 rpm, […]: 500 ml Phosphatpuffer pH 7, 4; • Fig. 3: Freisetzung von Levothyroxin-Natrium aus Tabletten (150 μg), Tablettenmasse 156 mg, Paddle-Apparatur, 100 rpm, […]: 500 ml Phosphatpuffer pH 7,4 und • Fig. 4: Freisetzung von Levothyroxin-Natrium aus Tabletten (200 μg), Tablettenmasse 208 mg, Paddle-Apparatur, 100 rpm, […]: 500 ml Phosphatpuffer pH 7,4.

[3] = oral, steady state after 6 weeks of medication, patients on long-term medication; cited from earlier work

Compound	Dosislinearität [1]	Freisetzung von Levothyroxin-Natrium aus Tabletten [2]	Kinetik (L-Thyroxin-Serumkonzentration, AUC 0 x 24, Cmax, Ctrough) [3]
N[C@@H](Cc1cc(I)c(Oc2cc(I)c(O)c(I)c2)c(I)c1)C(=O)O [Levothyroxin-Natrium]	klare Dosislinearität	in gleicher Geschwindigkeit und gleichem Ausmaß freigesetzt	
N[C@@H](Cc1cc(I)c(Oc2cc(I)c(O)c(I)c2)c(I)c1)C(=O)O [L-Thyroxin]			nicht-linearen Kinetik
